The values that follow come from patent US12630498B2 (Genzyme Corporation, priority 2019, dated 2026).

The target in assay [1] is T1, human Cystic Fibrosis Transmembrane Conductance Regulator (CFTR) harboring the ΔF508 mutation (Homo sapiens, UniProt P13569, DEL508-508).
T1 construct: expressed in transfected cells; host or cells: H441 carcinoma line (G418-selected)
In words: H441 cell ΔF508-CFTR-HRP cell surface assay (Emax and EC50). Type of assay: cell-based. The following applies: for Emax: NCI-H441, NA = Not active. Summed up: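 H441 and 41o- bronchial epithelial cells expressing ΔF508-CFTR with an extracellular-loop-4 HRP tag were treated with a 15-point compound series (24.5–0.001 μM) for two nights, H441 at 27° C, 41o- at 37° C with 0.0005 mg/ml doxycycline. Surface HRP luminescence read; % of maximum VX809 signal and EC50 derived.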

Assay [2] addresses T2, CFTR-mediated transepithelial chloride transport in primary human bronchial epithelial cells from a ΔF508 homozygous CF donor (Homo sapiens, UniProt P13569, DEL508-508).
T2 construct: Primary human bronchial epithelial cells from a ΔF508 homozygous CF donor; host or cells: primary CF-HBE cells, ΔF508 homozygous donor
The assay can be described thus: TECC24 recording of CFTR-mediated transepithelial chloride transport in CF-HBE cells (AUC fold over DMSO). The following applies: test agent 10 μM, 48 hours incubation, AUC of forskolin-stimulated IEQ relative to DMSO. Type of assay: cell-based. Summed up: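 Primary ΔF508/ΔF508 CF-HBE cells on inserts exposed to test agent in IL-13-containing medium for 48 h at 36.5 °C. Current-clamp VT/TEER recording in pH 7.4 HEPES saline with benzamil 10 μM, forskolin 10 μM, then CFTRinh-172 20 μM. AUC of equivalent Cl⁻ current between forskolin and inhibitor, expressed as ratio over vehicle.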

Structures are written as SMILES.

T1 sequence (P13569 with tags, fused parts or gaps DEL508-508): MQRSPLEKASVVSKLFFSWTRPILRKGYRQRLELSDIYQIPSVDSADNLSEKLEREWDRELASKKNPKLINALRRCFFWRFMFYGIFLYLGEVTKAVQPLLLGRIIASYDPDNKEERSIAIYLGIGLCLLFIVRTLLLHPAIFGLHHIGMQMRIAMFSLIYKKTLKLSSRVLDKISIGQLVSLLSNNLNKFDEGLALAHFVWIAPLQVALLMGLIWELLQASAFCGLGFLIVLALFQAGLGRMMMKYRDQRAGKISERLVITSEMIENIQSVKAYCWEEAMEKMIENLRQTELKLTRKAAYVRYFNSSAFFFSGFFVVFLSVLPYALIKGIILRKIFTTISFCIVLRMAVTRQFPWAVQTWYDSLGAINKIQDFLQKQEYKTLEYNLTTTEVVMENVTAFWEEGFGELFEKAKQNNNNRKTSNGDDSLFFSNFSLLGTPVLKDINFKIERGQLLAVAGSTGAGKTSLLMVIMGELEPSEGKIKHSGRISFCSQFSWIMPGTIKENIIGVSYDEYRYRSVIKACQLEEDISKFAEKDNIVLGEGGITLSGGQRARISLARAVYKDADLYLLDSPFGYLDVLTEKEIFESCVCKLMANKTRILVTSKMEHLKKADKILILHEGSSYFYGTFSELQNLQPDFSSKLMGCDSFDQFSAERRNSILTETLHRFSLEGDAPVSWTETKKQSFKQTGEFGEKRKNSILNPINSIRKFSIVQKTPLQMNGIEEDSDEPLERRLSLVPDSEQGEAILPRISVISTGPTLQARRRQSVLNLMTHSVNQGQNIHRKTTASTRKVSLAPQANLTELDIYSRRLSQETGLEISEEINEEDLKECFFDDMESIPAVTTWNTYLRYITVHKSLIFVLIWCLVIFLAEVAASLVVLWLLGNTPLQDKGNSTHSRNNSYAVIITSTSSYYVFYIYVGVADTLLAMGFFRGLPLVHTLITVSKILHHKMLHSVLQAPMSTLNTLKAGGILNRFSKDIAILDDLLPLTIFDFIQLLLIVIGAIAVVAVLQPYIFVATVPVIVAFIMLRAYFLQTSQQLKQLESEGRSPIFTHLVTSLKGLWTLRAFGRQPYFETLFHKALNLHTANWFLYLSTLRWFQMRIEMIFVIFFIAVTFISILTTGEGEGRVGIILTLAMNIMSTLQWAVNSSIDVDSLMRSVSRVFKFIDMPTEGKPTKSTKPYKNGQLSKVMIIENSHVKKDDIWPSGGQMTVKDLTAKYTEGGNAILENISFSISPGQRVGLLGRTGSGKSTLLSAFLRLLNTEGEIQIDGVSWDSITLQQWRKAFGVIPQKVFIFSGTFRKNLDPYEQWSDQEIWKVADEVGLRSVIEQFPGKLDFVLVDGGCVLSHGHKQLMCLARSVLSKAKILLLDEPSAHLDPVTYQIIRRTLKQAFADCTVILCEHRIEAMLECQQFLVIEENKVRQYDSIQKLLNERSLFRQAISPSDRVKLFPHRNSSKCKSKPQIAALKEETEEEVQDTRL
T2 sequence (P13569 with tags, fused parts or gaps DEL508-508): as above

Regarding `CC(C)(C)C[C@H](NC(=O)c1ccc2ccccc2c1OC[C@H]1CC[C@H](C(F)(F)F)CC1)C(=O)O` [Example 179, (S)-4,4-dimethyl-2-(1-(((1r,4S)-4-(trifluoromethyl)cyclohexyl)methoxy)-2-naphthamido)pentanoic Acid], in assay [1], the EC50 (usually the concentration at which the effect is half-maximal) amounted to 3400 nM and the Emax – broadly, the maximal effect, on the per cent scale that the assay sets – stood at 103%. In assay [2], the “TECC24 AUC fold over DMSO @10 μM” value is recorded as “C (“C” refers to AUC @10 uM <4)”.
In assay [1], `O=C(N[C@H](C(=O)O)C(c1ccccc1)c1ccccc1)c1ccc2ccccc2c1OCc1ccc(OC(F)(F)F)cc1` [Example 189, (S)-3,3-diphenyl-2-(1-((4-(trifluoromethoxy)benzyl)oxy)-2-naphthamido)propanoic Acid] displayed an EC50 of 2400 nM and an Emax of 14.3%. Also, the “TECC24 AUC fold over DMSO @10 μM” value in assay [2] is given as “C (“C” refers to AUC @10 uM <4)”.
In assay [1], `O=C(N[C@H](C(=O)O)C(c1ccccc1)c1ccccc1)c1ccc2cc(F)ccc2c1OCc1ccc(C(F)(F)F)cc1` [Example 196] returned an EC50 of 300 nM and an Emax of 101%. In addition, the “TECC24 AUC fold over DMSO @10 μM” value in assay [2] is given as “C (“C” refers to AUC @10 uM <4)”.
The matching figures for `O=C(N[C@@H](Cc1ccc(C(F)(F)F)cc1)C(=O)O)c1ccc2cc(F)ccc2c1OCc1ccc(C(F)(F)F)cc1` [Example 197, (S)-2-(6-fluoro-1-((4-(trifluoromethyl)benzyl)oxy)-2-naphthamido)-3-(4-(trifluoromethyl)phenyl)propanoic Acid]: 11500 nM, 80.8% and “B (“B” refers to AUC @10 uM between 4-6)”.
Taken in the same sequence, the figures for `CC(C)(C)C[C@H](NC(=O)c1ccc2cc(F)ccc2c1OCc1ccc(C(F)(F)F)cc1)C(=O)O` [Example 198, (S)-2-(6-fluoro-1-((4-(trifluoromethyl)benzyl)oxy)-2-naphthamido)-4,4-dimethylpentanoic Acid] were 1500 nM, 94.4% and “A (“A” refers to AUC @10 uM >6)”.
As to `O=C(N[C@H](C(=O)O)C(c1ccccc1)c1ccccc1)c1ccc2ccccc2c1OCC1CCCCC1` [Example 199, (S)-2-(1-(cyclohexylmethoxy)-2-naphthamido)-3,3-diphenylpropanoic Acid], in assay [1], a half-maximal response (EC50) required 500 nM and the Emax is 129%. Further, the “TECC24 AUC fold over DMSO @10 μM” value in assay [2] is on record as “C (“C” refers to AUC @10 uM <4)”.
For `CC(C)(C)C[C@H](NC(=O)c1ccc2ccccc2c1OCC1CCCCC1)C(=O)O` [Example 201, (S)-2-(1-(cyclohexylmethoxy)-2-naphthamido)-4,4-dimethylpentanoic Acid], in assay [1], the EC50 is 4100 nM and the Emax is 135%. Also, the “TECC24 AUC fold over DMSO @10 μM” value in assay [2] is “C (“C” refers to AUC @10 uM <4)”.
In assay [1], `O=C(N[C@H](C(=O)O)C(c1ccccc1)c1ccccc1)c1ccc2cc(F)ccc2c1OCC1CCCCC1` [Example 203] showed an EC50 of 800 nM and an Emax of 101%. The “TECC24 AUC fold over DMSO @10 μM” value in assay [2] was “C (“C” refers to AUC @10 uM <4)”.
In assay [1], `CC(C)(C)C[C@H](NC(=O)c1ccc2cc(F)ccc2c1OCC1CCCCC1)C(=O)O` [Example 205, (S)-2-(1-(cyclohexylmethoxy)-6-fluoro-2-naphthamido)-4,4-dimethylpentanoic Acid] came in with an EC50 of 4800 nM and an Emax of 92.2%. In assay [2], the “TECC24 AUC fold over DMSO @10 μM” value is “C (“C” refers to AUC @10 uM <4)”.
Taken in the same sequence, the figures for `O=C(N[C@@H](Cc1ccc(C(F)(F)F)cc1)C(=O)O)c1ccc2cc(F)ccc2c1OCc1ccc(Cl)c(Cl)c1` [Example 210, (S)-2-(1-((3,4-dichlorobenzyl)oxy)-6-fluoro-2-naphthamido)-3-(4-(trifluoromethyl)phenyl)propanoic Acid] were 4300 nM, 38.8% and “C (“C” refers to AUC @10 uM <4)”.
For the compound `O=C(N[C@H](C(=O)O)C(c1ccccc1)c1ccccc1)c1ccc2ccccc2c1OCc1nc2ccccc2s1` [Example 212, (S)-2-(1-(benzo[d]thiazol-2-ylmethoxy)-2-naphthamido)-3,3-diphenylpropanoic Acid], in assay [1], the EC50 was 1200 nM and the Emax was found to be 141%. The “TECC24 AUC fold over DMSO @10 μM” value in assay [2] is recorded as “C (“C” refers to AUC @10 uM <4)”.
With `CC(C)(C)C[C@H](NC(=O)c1ccc2ccccc2c1OCc1nc2ccccc2s1)C(=O)O` [Example 214, (S)-2-(1-(benzo[d]thiazol-2-ylmethoxy)-2-naphthamido)-4,4-dimethylpentanoic Acid], in assay [1], a half-maximal effect (EC50) was put at 3400 nM and the Emax was determined as 112%. Also, the “TECC24 AUC fold over DMSO @10 μM” value in assay [2] was “C (“C” refers to AUC @10 uM <4)”.
Taken in the same sequence, the figures for `O=C(N[C@H](C(=O)O)C(c1ccccc1)c1ccccc1)c1ccc2cc(F)ccc2c1OCc1nc2ccccc2s1` [Example 216, (S)-2-(1-(benzo[d]thiazol-2-ylmethoxy)-6-fluoro-2-naphthamido)-3,3-diphenylpropanoic Acid] were 900 nM, 115% and “C (“C” refers to AUC @10 uM <4)”.
In assay [1], `O=C(N[C@@H](Cc1ccc(C(F)(F)F)cc1)C(=O)O)c1ccc2cc(F)ccc2c1OCc1nc2ccccc2s1` [Example 217, (S)-2-(1-(benzo[d]thiazol-2-ylmethoxy)-6-fluoro-2-naphthamido)-3-(4-(trifluoromethyl)phenyl)propanoic Acid] showed an EC50 of 15900 nM and an Emax of 65.8%. Also, the “TECC24 AUC fold over DMSO @10 μM” value in assay [2] is reported as “C (“C” refers to AUC @10 uM <4)”.
In assay [1], `CC(C)(C)C[C@H](NC(=O)c1ccc2cc(F)ccc2c1OCc1nc2ccccc2s1)C(=O)O` [Example 218, (S)-2-(1-(benzo[d]thiazol-2-ylmethoxy)-6-fluoro-2-naphthamido)-4,4-dimethylpentanoic Acid] returned an EC50 of 4800 nM and an Emax of 86.8%. Further, the “TECC24 AUC fold over DMSO @10 μM” value in assay [2] is “C (“C” refers to AUC @10 uM <4)”.
Turning to `C#CC(C)(C)C(NC(=O)c1ccc2ccc(C)cc2c1OCc1ccc(C(F)(F)F)cc1)C(=O)O` (stereo not drawn) [Example 219, 3,3-dimethyl-2-[[7-methyl-1-[[4-(trifluoromethyl)phenyl]methoxy]naphthalene-2-carbonyl]amino]pent-4-ynoic Acid], in assay [1], it took 400 nM to reach a half-maximal effect (EC50) and the Emax stood at 191%. In addition, in assay [2], the “TECC24 AUC fold over DMSO @10 μM” value is on record as “A (“A” refers to AUC @10 uM >6)”.
Take `CC(C)(C)[C@H](NC(=O)c1ccc2c(F)cccc2c1OCc1ccc(OC(F)(F)F)cc1)C(=O)O` [Example 221, (2S)-2-[[5-fluoro-1-[[4-(trifluoromethoxy)phenyl]methoxy]naphthalene-2-carbonyl]amino]-3,3-dimethyl-butanoic Acid]: in assay [1], the EC50 was determined as 1200 nM and the Emax came to 125%. In addition, the “TECC24 AUC fold over DMSO @10 μM” value in assay [2] is listed as “A (“A” refers to AUC @10 uM >6)”.
In the case of `CC(C)(C)[C@H](NC(=O)c1ccc2ccccc2c1OC[C@H]1CC[C@H](C(F)(F)F)CC1)C(=O)O` [Example 222, (2S)-3,3-dimethyl-2-[[1-[[4-(trifluoromethyl)cyclohexyl]methoxy]naphthalene-2-carbonyl]amino]butanoic Acid], in assay [1], the EC50 was determined as 2900 nM and the Emax amounted to 154%. In assay [2], the “TECC24 AUC fold over DMSO @10 μM” value is “A (“A” refers to AUC @10 uM >6)”.
For `C=CC(C)(C)C(NC(=O)c1ccc2ccccc2c1OCc1ccc(C(F)(F)F)cc1)C(=O)O` (stereo not drawn) [Example 223, 3,3-dimethyl-2-[[1-[[4-(trifluoromethyl)phenyl]methoxy]naphthalene-2-carbonyl]amino]pent-4-enoic Acid], in assay [1], the midpoint of the response, the EC50, lay at 800 nM and the Emax turned out to be 112%. In addition, the “TECC24 AUC fold over DMSO @10 μM” value in assay [2] was “B (“B” refers to AUC @10 uM between 4-6)”.
As for `CCC(C)(C)[C@H](NC(=O)c1ccc2cc(C)ccc2c1OCc1ccc(C(F)(F)F)cc1)C(=O)O` [Example 225, (2S)-3,3-dimethyl-2-[[6-methyl-1-[[4-(trifluoromethyl)phenyl]methoxy]naphthalene-2-carbonyl]amino]pentanoic Acid], in assay [1], the EC50 was 12200 nM and the Emax was 97%. The “TECC24 AUC fold over DMSO @10 μM” value in assay [2] was “A (“A” refers to AUC @10 uM >6)”.
In assay [1], `CCC(C)(C)[C@H](NC(=O)c1ccc2c(F)cccc2c1OCc1ccc(OC(F)(F)F)cc1)C(=O)O` [Example 226, (2S)-2-[[5-fluoro-1-[[4-(trifluoromethoxy)phenyl]methoxy]naphthalene-2-carbonyl]amino]-3,3-dimethyl-pentanoic Acid] came in with an EC50 of 400 nM and an Emax of 139%. Moreover, the “TECC24 AUC fold over DMSO @10 μM” value in assay [2] is “B (“B” refers to AUC @10 uM between 4-6)”.
For the compound `C#CC(C)(C)C(NC(=O)c1ccc2ccccc2c1OCc1ccc(SC(F)(F)F)cc1)C(=O)O` (stereo not drawn) [Example 227, 3,3-dimethyl-2-[[1-[[4-(trifluoromethylsulfanyl)phenyl]methoxy]naphthalene-2-carbonyl]amino]pent-4-ynoic Acid], in assay [1], it took 1300 nM to reach a half-maximal effect (EC50) and the Emax amounted to 160%. For the same compound, the “TECC24 AUC fold over DMSO @10 μM” value in assay [2] is recorded as “C (“C” refers to AUC @10 uM <4)”.
In the case of `C#CC(C)(C)C(NC(=O)c1ccc2ccccc2c1OCc1ccc(C(F)(F)F)cc1)C(=O)O` (stereo not drawn) [Example 228, 3,3-dimethyl-2-[[1-[[4-(trifluoromethyl)phenyl]methoxy]naphthalene-2-carbonyl]amino]pent-4-ynoic Acid], in assay [1], the EC50 came out at 2000 nM and the Emax is 215%. Further, the “TECC24 AUC fold over DMSO @10 μM” value in assay [2] is reported as “A (“A” refers to AUC @10 uM >6)”.
